Experimental findings from ChEMBL document CHEMBL1143727, “Terpenoids from the medicinal plant Maytenus ilicifolia” (J Nat Prod, 2007) are described below.

Activity calls are given as the source filed them. The rule behind the calls is not given here.

The assay concerns Saccharomyces cerevisiae. As to the kind of experiment: Antimicrobial activity against DNA damage check point deffective Saccharomyces cerevisiae mutants. Format: functional, organism-based.
In the case of `COc1cc(C(=O)Oc2c(O)cc3c(c2C)C(O)CC2[C@@]3(C)CC[C@@]3(C)C4C[C@@H](C)C(=O)C[C@]4(C)CC[C@]23C)ccc1O` (some centres undefined), the result was inactive.
The result for `COC(=O)[C@]1(C)CC[C@](C)(CC[C@]2(C)C(/C=C\c3ccc4c(c3C)O[C@]3(O)C(=O)C=C5C(=CC=C6[C@@]5(C)CC[C@@]5(C)C7C[C@@H](C)C(=O)C[C@]7(C)CC[C@]65C)[C@]3(C)O4)[C@@H](C)CC[C@@H]2C)CC1` (some centres undefined) reads “inactive”.
Take `C=C(C)C1CCC(C)[C@@]23CC=C(C)[C@]2(C1)Oc1c(cc2c(c1C)C=CC1[C@@]2(C)CC[C@@]2(C)C4C[C@@H](C)C(=O)C[C@]4(C)CC[C@]12C)O3` (some centres undefined): the outcome was inactive.
To `C=C(C)C1CCC(C)[C@@]23CC=C(C)[C@]2(C1)Oc1cc2c(c(C)c1O3)C(=O)C=C1[C@@]2(C)CC[C@@]2(C)C3C[C@@H](C)C(=O)C[C@]3(C)CC[C@]12C` (some centres undefined) belongs “inactive”.
